One experiment concerns the target T1, PI3K alpha (Homo sapiens, UniProt P42336).
T1 construct: p85(iSH2) fusion partner (see partner chain) (N); His tag (C); made in house; host or cells: baculovirus; Tn5 (Trichoplusia ni) or TiniPro insect cells
Nature of the experiment: PI3K alpha kinase assay (Kinase-Glo luminescence). In kind it is biochemical. Put shortly: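 PI3K alpha at 10 nM with 1 μM ATP and 10 μg/mL phosphatidylinositol in 10 mM TRIS pH 7.5, 3 mM MgCl2, 50 mM NaCl, 0.05% CHAPS, 1 mM DTT, 60 min at room temperature. Remaining ATP read by Kinase-Glo luminescence. IC50 by 4-parameter fit over 8 concentrations.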

Experiment [1] has as its system PKB Ser473 phosphorylation in Rat1-myr-HA-p110 delta cells. Put plainly: Reverse protein array assay, PKB Ser473 phosphorylation in Rat1-myr-p110 delta cells. In kind it is cell-based. To be noted: read-out: p-PKB IC50. In outline: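 Measured: PKB Ser473 phosphorylation by reverse protein array in Rat1 cells expressing myr-HA-p110 alpha, beta or delta, after 30 min compound treatment at 37 °C with 0.2% DMSO vehicle.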

For a further experiment, the target named is T2, PI3K gamma (Homo sapiens, UniProt P48736).
T2 construct: His tag (C); made in house; host or cells: baculovirus (pVL1393); Tn5 or TiniPro insect cells; construct from Roger Williams lab, MRC LMB
Nature of the experiment: PI3K gamma kinase assay (Kinase-Glo luminescence). In kind it is biochemical. Put shortly:
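Luminescent ATP-depletion (Kinase-Glo) assay with 150 nM PI3Kγ, 1 μM ATP and 10 μg/mL phosphatidylinositol in 10 mM Tris-HCl pH 7.5, 3 mM MgCl2, 50 mM NaCl, 0.05% CHAPS, 1 mM DTT; 120 min at room temperature. Eight-point dilutions; IC50 by four-parameter logistic fit.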

T1 sequence (P42336 with tags, fused parts or gaps limits assumed): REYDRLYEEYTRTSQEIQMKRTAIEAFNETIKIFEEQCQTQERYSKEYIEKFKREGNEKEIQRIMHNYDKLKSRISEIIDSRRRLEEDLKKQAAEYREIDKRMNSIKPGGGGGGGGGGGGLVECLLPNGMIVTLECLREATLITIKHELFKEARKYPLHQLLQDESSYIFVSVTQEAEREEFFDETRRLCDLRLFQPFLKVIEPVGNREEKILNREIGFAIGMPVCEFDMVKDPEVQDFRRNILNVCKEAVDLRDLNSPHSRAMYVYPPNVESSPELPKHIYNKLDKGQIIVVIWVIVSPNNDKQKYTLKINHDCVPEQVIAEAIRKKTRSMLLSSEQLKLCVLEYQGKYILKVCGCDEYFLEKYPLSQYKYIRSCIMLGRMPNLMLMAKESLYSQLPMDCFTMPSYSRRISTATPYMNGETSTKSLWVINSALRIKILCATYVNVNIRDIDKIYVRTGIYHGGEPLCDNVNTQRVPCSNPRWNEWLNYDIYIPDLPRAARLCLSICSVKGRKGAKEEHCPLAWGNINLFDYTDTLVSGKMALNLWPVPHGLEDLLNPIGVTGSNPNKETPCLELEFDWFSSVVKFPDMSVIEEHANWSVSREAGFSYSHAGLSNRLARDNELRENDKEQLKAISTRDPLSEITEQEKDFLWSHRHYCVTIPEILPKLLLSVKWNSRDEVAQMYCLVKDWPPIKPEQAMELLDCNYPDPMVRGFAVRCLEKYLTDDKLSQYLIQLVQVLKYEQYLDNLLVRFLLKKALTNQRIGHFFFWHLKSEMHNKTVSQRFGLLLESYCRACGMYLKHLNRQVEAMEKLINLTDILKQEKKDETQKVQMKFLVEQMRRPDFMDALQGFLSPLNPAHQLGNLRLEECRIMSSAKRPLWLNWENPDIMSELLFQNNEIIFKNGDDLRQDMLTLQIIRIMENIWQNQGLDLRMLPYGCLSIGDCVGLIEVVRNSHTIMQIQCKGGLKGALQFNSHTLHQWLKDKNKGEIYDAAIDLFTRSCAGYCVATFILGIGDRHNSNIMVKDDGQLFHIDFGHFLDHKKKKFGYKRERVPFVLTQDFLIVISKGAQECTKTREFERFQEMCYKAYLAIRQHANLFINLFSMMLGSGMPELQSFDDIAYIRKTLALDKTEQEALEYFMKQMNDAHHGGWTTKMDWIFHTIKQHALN
T2 sequence (P48736 144-1102 limits assumed): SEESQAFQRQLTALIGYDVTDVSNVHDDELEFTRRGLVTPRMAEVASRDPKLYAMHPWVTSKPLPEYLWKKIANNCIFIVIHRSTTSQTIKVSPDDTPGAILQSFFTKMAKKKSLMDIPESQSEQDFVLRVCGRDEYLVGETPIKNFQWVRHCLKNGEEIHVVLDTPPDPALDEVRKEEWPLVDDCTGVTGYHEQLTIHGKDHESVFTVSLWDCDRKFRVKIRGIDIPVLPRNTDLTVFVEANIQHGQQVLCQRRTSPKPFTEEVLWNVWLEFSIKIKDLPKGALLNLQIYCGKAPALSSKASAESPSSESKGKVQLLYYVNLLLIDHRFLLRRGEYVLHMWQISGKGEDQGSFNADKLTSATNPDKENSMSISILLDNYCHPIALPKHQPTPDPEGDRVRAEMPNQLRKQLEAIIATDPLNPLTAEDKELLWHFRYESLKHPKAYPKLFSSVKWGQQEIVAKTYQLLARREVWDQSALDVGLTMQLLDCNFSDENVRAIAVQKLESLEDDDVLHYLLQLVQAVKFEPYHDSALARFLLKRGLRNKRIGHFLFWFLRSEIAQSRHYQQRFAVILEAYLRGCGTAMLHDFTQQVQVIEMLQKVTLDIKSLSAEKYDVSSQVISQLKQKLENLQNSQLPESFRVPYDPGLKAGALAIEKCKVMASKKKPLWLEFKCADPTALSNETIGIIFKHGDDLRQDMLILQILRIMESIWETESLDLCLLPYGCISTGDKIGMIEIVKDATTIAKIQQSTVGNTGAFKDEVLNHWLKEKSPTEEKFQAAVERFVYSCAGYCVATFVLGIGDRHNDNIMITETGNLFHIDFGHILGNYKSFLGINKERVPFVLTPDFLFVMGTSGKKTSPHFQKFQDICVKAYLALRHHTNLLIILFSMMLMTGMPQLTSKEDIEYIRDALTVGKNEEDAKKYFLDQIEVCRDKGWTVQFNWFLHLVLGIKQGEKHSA

For `Cc1nn(C)cc1-n1c(=S)n(C)c2cnc3ccc(-c4cccnc4)cc3c21` [Example 128.1, 1-(1,3-Dimethyl-1H-pyrazol-4-yl)-3-methyl-8-pyridin-3-yl-1,3-dihydro-imidazo[4,5-c]quinoline-2-thione], the IC50 was 11 nM on PI3K alpha, 127 nM in experiment [1] and 142 nM on PI3K gamma.

As for `CCn1cc(-n2c(=O)n(C)c3cnc4ccc(-c5ccc(OC)c(OC)c5)nc4c32)c(C)n1` [Example 254, 8-(3,4-Dimethoxy-phenyl)-1-(1-ethyl-3-methyl-1H-pyrazol-4-yl)-3-methyl-1,3-dihydro-1,3,5,9-tetraaza-cyclopenta[a]naphthalen-2-one], the half-inhibitory concentration (IC50) was 11 nM at PI3K alpha, 116 nM in experiment [1] and 145 nM on PI3K gamma.

In the case of `COc1ccc(-c2ccc3ncc4c(c3c2)n(-c2cn(C)nc2C)c(=S)n4C)cc1OC` [Example 128.2, 8-(3,4-Dimethoxy-phenyl)-1-(1,3-dimethyl-1H-pyrazol-4-yl)-3-methyl-1,3-dihydro-imidazo[4,5-c]quinoline-2-thione], the IC50 on PI3K alpha is 11 nM; in experiment [1] it was 10 nM; at PI3K gamma it was 117 nM.

On to `Cc1nn(C)cc1-n1c(=O)n(C)c2cnc3ccc(-c4cccc(NS(C)(=O)=O)c4)cc3c21` [Example 47, N-{3-[1-(1,3-dimethyl-1H-pyrazol-4-yl)-3-methyl-2-oxo-2,3-dihydro-1H-imidazo[4,5-c]quinolin-8-yl]-phenyl}-methanesulfonamide], for which the IC50 on PI3K alpha is 73 nM; in experiment [1], 839 nM; at PI3K gamma it was 701 nM.

Turning to `CNS(=O)(=O)c1cccc(-c2ccc3ncc4c(c3c2)n(-c2cn(C)nc2C)c(=O)n4C)c1` [Example 39, 3-[1-(1,3-Dimethyl-1H-pyrazol-4-yl)-3-methyl-2-oxo-2,3-dihydro-1H-imidazo[4,5-c]quinolin-8-yl]-N-methyl-benzenesulfonamide], the results for the half-maximal inhibitory concentration (IC50) (on PI3K alpha; in experiment [1]; on PI3K gamma) were less than 3 nM, 84 nM and 75 nM, respectively.

For the compound `Cc1nn(C)cc1-n1c(=O)n(C)c2cnc3ccc(-c4ccc(-c5ncc[nH]5)cc4)cc3c21` [Example 77, 1-(1,3-Dimethyl-1H-pyrazol-4-yl)-8-[4-(1H-imidazol-2-yl)-phenyl]-3-methyl-1,3-dihydro-imidazo[4,5-c]quinolin-2-one], the IC50 on PI3K alpha worked out at 5 nM; in experiment [1], 22 nM; on PI3K gamma, 75 nM.

In the case of `CN(C)c1ccc(-c2ccc3ncc4c(c3c2)n(-c2cn(C)nc2Cl)c(=O)n4C)cn1` [Example 4.9, 1-(3-Chloro-1-methyl-1H-pyrazol-4-yl)-8-(6-dimethylamino-pyridin-3-yl)-3-methyl-1,3-dihydro-imidazo[4,5-c]quinolin-2-one], the concentration for half-maximal inhibition (IC50) is 9 nM on PI3K alpha, 8 nM in experiment [1] and 150 nM at PI3K gamma.

The record behind these values is patent publication US20140005163A1 (NOVARTIS AG, priority 2010, published 2014).
